What was measured:
LNCaP-abl cells [1] = test: Cell proliferation assay, LNCaP-abl cells; type: cell-based; conditions: 72 hours
LNCaP-abl cells [2] = test: Clonogenic assay, LNCaP-abl cells; type: cell-based; conditions: 10 μM, 10 days
in vitro [3] = conditions: rat, liver microsomes
UBE2C = UBE2C mRNA expression in LNCaP-95 cells; type: cell-based; conditions: 10 μM, 48 hours
in vitro [4] = conditions: liver microsomes

What does the source list for `CNC(=O)c1ccc(N2C(=S)N(c3cnc(C#N)c(C(F)(F)F)c3)C(=O)C23CCC3)cc1F` [ARN509]?
effect on LNCaP-abl cellular proliferation (LNCaP-abl cells [1]; 10 μM): not growth inhibited; effect on colony formation (LNCaP-abl cells [2]): Neither enzalutamide nor ARN509 could effectively prevent colony formation

With `CC(C)NCC(O)COc1cccc2ccccc12` (stereo not shown) [Propranolol, propranolol] as the compound, how does the remaining at 1 h, 1.09 µM (in vitro [3]) read?
Its remaining at 1 h, 1.09 µM is 58.7%.

For `CNC(=O)c1ccc(N2C(=S)N(c3ccc(C#N)c(C(F)(F)F)c3)C(=O)C2(C)C)cc1F` [enzalutamide], which “effect on colony formation” value (LNCaP-abl cells [2]) is on record?
Its value is “Neither enzalutamide nor ARN509 could effectively prevent colony formation”.

What about the “UBE2C mRNA expression” value (UBE2C) of the same compound?
The value was “significantly increased UBE2C mRNA expression”.

With `C#C[C@]1(O)CC[C@H]2[C@@H]3CCC4=CC(=O)CC[C@]4(C)[C@H]3CC[C@@]21C` [ethisterone] as the compound, how does the “EC50 (concentration required to inhibit the proliferation by 50%)” value (LNCaP-abl cells [1]; highest concentration tested 100 μM) read?
Its value is “failed to reach 50% inhibition at the maximal concentration tested”.

With `CCOc1ccc(NC(C)=O)cc1` [phenacetin] as the compound, how does the half-life at 1.09 µM (in vitro [4]) read?
The half-life at 1.09 µM was about 1.33 h.
